US6503727B1, “Process for the preparation of an antibiotic” (Gist-Brocades, B.V., priority 1995, dated 2003)
Where two headings read alike, the source gives them in different places.

Legend:
[1] = final pH 4.5, 2 hours, 20° C.
Procedure: (§1) The following synthetic mixtures were prepared, with a final pH of 4.5:
(§2) After 2 hours' incubation in a shaker incubator (20° C.) samples were taken and the dissolved concentration of each of these components was determined.

[2] = Effect of PGA and AMPI on the solubility of 6-APA (dissolved concentrations in synthetic mixtures); settings: final pH 4.5, 2 hours, 20° C.
Procedure: as §1, §2

[3] = Effect of PGA and CEX on the solubility of 7-ADCA (dissolved concentrations in synthetic mixtures); settings: final pH 4.5, 2 hours, 20° C.
Procedure: Effect of PGA and PEX on the Solubility of 7-ADCA
The following synthetic mixtures were prepared, with a final pH of 4.5;
3% (m/m) 7-ADCA and 3.0% (m/m) CEX.H2O in water.
as §2

[4] = Example II Mixture 2: 3% (m/m) 6-APA and 0.4% (m/m) PG in water
[5] = Example II Mixture 3: 3% (m/m) 6-APA, 0.4% (m/m) PG and 1.5% (m/m) PGA in water
[6] = Example II Mixture 4: 3% (m/m) 6-APA, 0.4% (m/m) PG, 1.5% (m/m) PGA and 3.0% (m/m) AMPI in water
[7] = Example I Mixture 3: 3% (m/m) 7-ADCA, 0.4% (m/m) PG and 1.5% (m/m) PGA in water
[8] = Example I Mixture 4: 3% (m/m) 7-ADCA, 0.4% (m/m) PC, 1.5% (m/m) PGA and 3.0% (m/m) CEX.H2O in water

| dissolved concentration [2, 5] | dissolved concentration [2, 6] | Dissolved Concentrations ([3]; Example I Mixture 2: 3% (m/m) 7-ADCA and 0.4% (m/m) PG in water) | Dissolved Concentrations [3, 7] | Dissolved Concentrations [3, 8] | SMILES | Dissolved Concentrations ([1]; Example III Mixture 1: 3% (m/m) 6-APA in water) | Dissolved Concentrations ([1]; Example III Mixture 2: 3% (m/m) 6-APA and 0.5% (m/m) HPG in water) | Dissolved Concentrations ([1]; Example III Mixture 3: 3% (m/m) 6-APA, 0.5% (m/m) HPG and 1.5% (m/m) HPGA in water) | Dissolved Concentrations ([1]; Example III Mixture 4: 3% (m/m) 6-APA, 0.5% (m/m) HPG and 2.0% HPG-Me in water) | Dissolved Concentrations ([1]; Example III Mixture 5: 3% (m/m) 6-APA, 0.5% (m/m) HPG, 1.5% (m/m) HPGA and 3.0% AMOX in water) | Dissolved Concentrations ([1]; Example III Mixture 6: 3.0% (m/m) 6-APA, 0.5% (m/m) HPG, 2.0% (m/m) HPG-Me and 3.0% (m/m) AMOX in water) | dissolved concentration ([2]; Example II Mixture 1: 3% (m/m) 6-APA in water) | dissolved concentration [2, 4] |
| --- | --- | --- | --- | --- | --- | --- | --- | --- | --- | --- | --- | --- | --- |
| 0.4 | 0.4 | 0.40 % (m/m) | 0.40 % (m/m) | 0.40 % (m/m) | N[C@@H](C(=O)O)c1ccccc1 [PG, D-phenyl glycine] |  |  |  |  |  |  |  | 0.4 |
| 1.5 | 1.5 |  | 1.5 % (m/m) | 1.5 % (m/m) | NC(=O)[C@H](N)c1ccccc1 [PGA, D-phenyl glycine amide] |  |  |  |  |  |  |  |  |

| SMILES | dissolved concentration [2, 5] | dissolved concentration [2, 6] | Dissolved Concentrations ([3]; Example I Mixture 2: 3% (m/m) 7-ADCA and 0.4% (m/m) PG in water) | Dissolved Concentrations [3, 7] | Dissolved Concentrations [3, 8] | Dissolved Concentrations ([1]; Example III Mixture 1: 3% (m/m) 6-APA in water) | Dissolved Concentrations ([1]; Example III Mixture 2: 3% (m/m) 6-APA and 0.5% (m/m) HPG in water) | Dissolved Concentrations ([1]; Example III Mixture 3: 3% (m/m) 6-APA, 0.5% (m/m) HPG and 1.5% (m/m) HPGA in water) | Dissolved Concentrations ([1]; Example III Mixture 4: 3% (m/m) 6-APA, 0.5% (m/m) HPG and 2.0% HPG-Me in water) | Dissolved Concentrations ([1]; Example III Mixture 5: 3% (m/m) 6-APA, 0.5% (m/m) HPG, 1.5% (m/m) HPGA and 3.0% AMOX in water) | Dissolved Concentrations ([1]; Example III Mixture 6: 3.0% (m/m) 6-APA, 0.5% (m/m) HPG, 2.0% (m/m) HPG-Me and 3.0% (m/m) AMOX in water) | dissolved concentration ([2]; Example II Mixture 1: 3% (m/m) 6-APA in water) | dissolved concentration [2, 4] |
| --- | --- | --- | --- | --- | --- | --- | --- | --- | --- | --- | --- | --- | --- |
| CC1(C)S[C@@H]2[C@H](N)C(=O)N2[C@H]1C(=O)O [6-APA, 6-aminopenicillanic acid] | 0.40 | 0.90 |  |  |  | 0.35 % (m/m) | 0.35 % (m/m) | 0.40 % (m/m) | 0.50 % (m/m) | 1.40 % (m/m) | 2.15 % (m/m) | 0.35 | 0.40 |
